The text below walks through data of the supplement of paper PMC5412046.

Structures can show the parent of a compound that is named as a salt.

Assay [1] concerns SB.mhdgc-1. Nature of the assay: AC50 for growth inhibition (viability) (log10 M); higher = less potent. To be noted: SB.mhdgc-1 (hereditary c.1380delA CDH1 gastric cancer). In outline:
(§1)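 After 48 h with compound, plates received CellTiter-Glo for 30 min at room temperature and were read for luminescence on a ViewLux. The cells were patient-derived gastric cancer lines of hereditary or sporadic origin, plated at 500 cells in 5 μL medium per 1536 well and pinned with 23 nL compound in DMSO, at 11 threefold dilutions from a final 46 μM. For the log half-maximal activity concentration, DMSO-normalised viability was fitted with four parameters and only high-quality curve classes were kept.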

The subject of assay [2] is SB.msgc-1. The description is as above. The conditions noted are these: SB.msgc-1 (sporadic gastric cancer). The essentials: as §1

As for `CC1(C)CC(=O)c2c(C(F)(F)F)nn(-c3ccc(C(N)=O)c(NC4CCC(OC(=O)CN)CC4)c3)c2C1` (stereo not drawn) [SNX-5422], the “AC50 for growth inhibition (log10 M)” value was -6.58 in assay [1] and -7.13 in assay [2].
For `Cc1ccc(-c2ncn(-c3ccc(Nc4nccc(-c5cccc(N6CCOCC6)c5)n4)cc3)n2)cn1` [SR-3306], in that order: -6.18 and -7.13.
The corresponding values for `Cc1c[nH]c(/C=C2\C(=O)Nc3ccccc32)c1CCC(=O)O` [SU-5402] are -4.68 and -4.73.
The corresponding values for `CN(C)[S+](=O)([O-])c1ccc2c(c1)C(=Cc1cc3c([nH]1)CCCC3)C(=O)N2` [SU-6656] are -5.28 and -5.43.
As to `C[C@H](NCc1ccc(OCc2cccc(F)c2)cc1)C(N)=O` [Safinamide mesilate], the “AC50 for growth inhibition (log10 M)” value in assay [1] is -5.08; in assay [2] it was -4.78.
For `CCC(C1CCC(C)C(O1)C(C)C(O)C(C)C(=O)C(CC)C2OC\3(O[C@]4(CC[C@@](C)(O4)C5CC[C@@](O)(CC)C(C)O5)C(O)\C=C3)C(C)CC2C)C([O-])=O` (stereo partly drawn) [Salinomycin], in that order: -6.28 and -6.58.
The corresponding values for `CC(C)=CCC/C(C)=C/CC/C(C)=C/CSc1ccccc1C(=O)O` [Salirasib] are -6.43 and -5.58.
The corresponding values for `CN1CCN(CCOc2cc(OC3CCOCC3)c3c(Nc4c(Cl)ccc5c4OCO5)ncnc3c2)CC1` [Saracatinib] are -4.63 and -5.88.
As to `CC1(C)CCC[C@]2(C)[C@H]3CC(=O)O[C@]3(C)CC[C@@H]12` [Sclareolide], the “AC50 for growth inhibition (log10 M)” value in assay [1] is -5.03; in assay [2] it was -4.78.
The corresponding values for `CN1[C@@H]2CC(O)C[C@H]1[C@@H]1O[C@@H]12` (stereo partly drawn) [Scopine] are -4.78 and -4.83.
Turning to `COc1cc(C[C@@H](CO)[C@H](CO)Cc2ccc(O)c(OC)c2)ccc1O` [Secoisolariciresinol], the “AC50 for growth inhibition (log10 M)” value in assay [1] is -6.38; in assay [2], -6.63.
Take `Cn1cnc2c(F)c(Nc3ccc(Br)cc3Cl)c(C(=O)NOCCO)cc21` [Selumetinib]: the “AC50 for growth inhibition (log10 M)” value is -5.38 in assay [1] and -5.18 in assay [2].
For `C=C1/C(=C/C=C2\CCCC3(C)[C@@H]([C@H](C)/C=C/C=C/C(O)(CC)CC)CC[C@@H]23)C[C@@H](O)C[C@@H]1O` (stereo partly drawn) [Seocalcitol], in that order: -4.83 and -4.78.
In the case of `COCCn1c2c([n+](Cc3cnccn3)c1C)C(=O)c1ccccc1C2=O` [Sepantronium bromide], the “AC50 for growth inhibition (log10 M)” value is -7.33 in assay [1] and -7.73 in assay [2].
`c1ccc2c(CCNc3ccc(Nc4ccncc4)cc3)c[nH]c2c1` [Serdemetan]: the “AC50 for growth inhibition (log10 M)” value was -5.63 in assay [1] and -4.73 in assay [2].
For `CC(C)=CC[C@@H](O)C/1=C/C(=O)C2=C(O)C=CC(=C2C1=O)O` [Shikonin], in that order: -6.13 and -5.83.
For `COC/1=C/[C@@H]2[C@@H]3CC4=C(C(=C(OC)C=C4)O)[C@]2(CCN3C)CC1=O` [Sinomenine], in that order: -6.33 and -6.03.
The corresponding values for `CNC(=O)c1cc(Oc2ccc(NC(=O)Nc3ccc(Cl)c(C(F)(F)F)c3)cc2)ccn1` [Sorafenib] are -5.08 and -4.98.
For the compound `CC(C)NCC(O)c1ccc(NS(C)(=O)=O)cc1` (stereo not drawn) [Sotalol], the “AC50 for growth inhibition (log10 M)” value was -4.83 in assay [1] and -5.03 in assay [2].
The corresponding values for `CN[C@@H]1[C@H](O)[C@H](NC)[C@H]2O[C@@]3(O)C(=O)C[C@@H](C)O[C@H]3O[C@@H]2[C@H]1O` [Spectinomycin hydrochloride] are -5.93 and -6.08.
The corresponding values for `C[C@]12Cc3cn[nH]c3C[C@@H]1CC[C@@H]1[C@@H]2CC[C@@]2(C)[C@H]1CC[C@]2(C)O` [Stanozolol] are -5.98 and -5.63.
The corresponding values for `CN1CCN(CCCN2c3ccccc3Sc3ccc(C(F)(F)F)cc32)CC1` [Stelazine  trifluoperzine] are -5.63 and -5.08.
In the case of `CC(C)n1cnc2c(NCCc3ccc(O)cc3)nc(-c3csc4ccccc34)nc21` [StemRegenin 1], the “AC50 for growth inhibition (log10 M)” value in assay [1] was -5.78; in assay [2] it was -4.88.
As to `CC1=C(CC(=O)O)c2cc(F)ccc2/C1=C\c1ccc([S+](C)[O-])cc1` (stereo not drawn) [Sulindac], the “AC50 for growth inhibition (log10 M)” value is -5.93 in assay [1] and -5.53 in assay [2].
The corresponding values for `CCN(CC)CCNC(=O)c1c(C)[nH]c(/C=C2\C(=O)Nc3ccc(F)cc32)c1C` [Sunitinib malate] are -5.32 and -4.42.
Regarding `CC(C)(O)CC(=O)NCCn1ccc2ncnc(Nc3ccc(Oc4cccc(C(F)(F)F)c4)c(Cl)c3)c21` [TAK-285], the “AC50 for growth inhibition (log10 M)” value in assay [1] was -5.43; in assay [2], -6.88.
The corresponding values for `N#Cc1c(NC(=O)c2cccc3ccccc23)sc2c1CCCC2` [TCS JNK 5a] are -5.88 and -5.98.
The corresponding values for `Oc1ccc(-c2ccc(-c3cc(Nc4cccc(CNC5CC5)c4)[nH]n3)cc2)c(O)c1` [TCS-2312] are -6.28 and -5.03.
The corresponding values for `Cc1cnc(Nc2ccc(CN3CCOCC3)cc2)nc1Nc1cccc([S+](=O)([O-])NC(C)(C)C)c1` [TG-46] are -4.68 and -4.83.
Take `NC(=O)Nc1sc(-c2ccc(F)cc2)cc1C(N)=O` [TPCA-1]: the “AC50 for growth inhibition (log10 M)” value is -5.93 in assay [1] and -5.48 in assay [2].
For `Cc1ccc([S+](=O)([O-])N[C@@H](Cc2ccccc2)C(=O)CCl)cc1` [TPCK], in that order: -4.78 and -4.73.
The corresponding values for `CC(C)c1ccccc1Cc1cc(C(=O)Nc2ccc([S+](=O)([O-])c3ccccc3C(C)(C)C)cc2)c(O)c(O)c1O` [TW-37] are -4.83 and -5.13.
On to `CC/C(=C(\c1ccccc1)c1ccc(OCCN(C)C)cc1)c1ccccc1` [Tamoxifen], for which the “AC50 for growth inhibition (log10 M)” value in assay [1] is -4.68; in assay [2], -4.73.
`C=CCNC1=C2C[C@@H](C)C[C@H](OC)[C@H](O)[C@@H](C)/C=C(\C)[C@H](OC(N)=O)[C@@H](OC)/C=C\C=C(/C)C(=O)NC(=CC1=O)C2=O` [Tanespimycin]: the “AC50 for growth inhibition (log10 M)” value is -7.28 in assay [1] and -7.53 in assay [2].
The corresponding values for `Cc1coc2c1C(=O)C(=O)c1c-2ccc2c1CCCC2(C)C` [Tanshinone IIA] are -5.58 and -4.68.
`COc1cc2c(cc1OC)CN(CCc1ccc(NC(=O)c3cc(OC)c(OC)cc3NC(=O)c3cnc4ccccc4c3)cc1)CC2` [Tariquidar]: the results for the “AC50 for growth inhibition (log10 M)” value in assay [1] and in assay [2] were -5.03 and -5.08, respectively.
`CCOC(=O)[C@@H](N)Cc1ccc(-c2cc(O[C@H](c3ccc(Cl)cc3-n3ccc(C)n3)C(F)(F)F)nc(N)n2)cc1.O=C(O)CNC(=O)c1ccccc1` [Telotristat etiprate]: the “AC50 for growth inhibition (log10 M)” value in assay [1] was -4.78; in assay [2] it was -5.03.
The corresponding values for `CCOC(=O)[C@H](CCc1ccccc1)N[C@H]1CS[C@H](c2cccs2)CN(CC(=O)O)C1=O.Cl` [Temocapril hydrochloride] are -6.28 and -5.88.
As to `COc1cc([C@@H]2c3cc4c(cc3[C@@H](O[C@@H]3O[C@@H]5CO[C@@H](c6cccs6)O[C@H]5[C@H](O)[C@H]3O)[C@H]3COC(=O)[C@H]23)OCO4)cc(OC)c1O` [Teniposide], the “AC50 for growth inhibition (log10 M)” value is -7.13 in assay [1] and -6.03 in assay [2].
For `CC(C)OC(=O)OCOP(=O)(CO[C@H](C)Cn1cnc2c(N)ncnc21)OCOC(=O)OC(C)C.O=C(O)C=CC(=O)O` [Tenofovir Disoproxil Fumarate], in that order: -4.68 and -4.78.
For `COc1ccc(C[C@@H](C)[C@@H](C)Cc2ccc(OC)c(OC)c2)cc1OC` [Terameprocol], in that order: -5.18 and -5.43.
The corresponding values for `C/C(O)=C(\C#N)C(=O)Nc1ccc(C(F)(F)F)cc1` [Teriflunomide] are -4.63 and -4.78.
Take `CCN(CC)CCOc1ccc(Cc2ccccc2)cc1` [Tesmilifene hydrochloride]: the “AC50 for growth inhibition (log10 M)” value in assay [1] was -4.48; in assay [2], -5.18.
The corresponding values for `C/C=C(/C)C(=O)O[C@H]1C(C)=C2[C@H]([C@@H]1OC(=O)CCCCCCC)[C@@](C)(OC(C)=O)C[C@H](OC(=O)CCC)[C@@]1(O)[C@H]2OC(=O)[C@@]1(C)O` [Thapsigargin] are -6.98 and -7.43.
